This note sets out measurements from ChEMBL document CHEMBL4177632.

Data set [1] concerns the target Aldo-keto reductase family 1 member B1 (Rattus norvegicus) (UniProt P07943). Description: Inhibition of ALR2 in Wistar rat lens assessed as reduction in glucose induced-sorbitol accumulation by measuring sorbitol level preincubated for 30 mins followed by glucose addition measured after 3 hrs by resazurin dye based fluorescence assay. (The colour change of resazurin is a common sign of viable cells or microbes.)

Data set [2] shares this target. Nature of the data set: Inhibition of ALR2 in Wistar rat lens assessed as reduction in glucose induced-sorbitol accumulation by measuring sorbitol level at 0.1 uM preincubated for 30 mins followed by glucose addition measured after 3 hrs by resazurin dye based fluorescence assay (reference value: 803.6 +/- 104.6 nmol/g).
The next data set is filed under the species Rattus norvegicus. Description: Selectivity index, ratio of IC50 for ALR1 in Wistar rat kidney to IC50 for ALR2 in Wistar rat eye lens.
Data set [3] addresses Aldo-keto reductase family 1 member B1 (Rattus norvegicus) (UniProt P07943). Description: Inhibition of ALR2 in Wistar rat lens assessed as reduction in glucose induced-sorbitol accumulation by measuring sorbitol level at 100 uM preincubated for 30 mins followed by glucose addition measured after 3 hrs by resazurin dye based fluorescence assay (reference value: 803.6 +/- 104.6 nmol/g).

The target is the same in data set [4]. Description: Inhibition of ALR2 in Wistar rat lens assessed as reduction in glucose induced-sorbitol accumulation by measuring sorbitol level at 1 uM preincubated for 30 mins followed by glucose addition measured after 3 hrs by resazurin dye based fluorescence assay (reference value: 803.6 +/- 104.6 nmol/g).
The test system of data set [5] is CCOC(=O)N1CCc2c(c3cc(OC)ccc3n2CC(=O)O)C1. Description: Inhibition of recombinant human AKR1B1 assessed as Km for D,L-glyceraldehyde substrate at 120 nM (reference value: 0.065+/- 0.003 […]).
The test system is the same in data set [6]. Description: Inhibition of recombinant human AKR1B1 assessed as Km for D,L-glyceraldehyde substrate at 80 nM (reference value: 0.065+/- 0.003 […]).

Turning to `CC(=O)N1CCc2c(c3ccccc3n2CC(=O)O)C1`, in data set [1], the inhibition entry is “Dose-dependent effect”. Also, the Activity came to 756 nmol/g in data set [2], 184 nmol/g in data set [3] and 631 nmol/g in data set [4]. In addition, the Ratio IC50 in the data set listed under Rattus norvegicus is 1070.

For `Cc1c(C=O)c2ccccc2n1CC(=O)O`, the Ratio IC50 in the data set filed under Rattus norvegicus turned out to be 35.

For `CCOC(=O)N1CCc2c(c3cc(OC)ccc3n2CC(=O)O)C1`, the inhibition entry in data set [1] is “Dose-dependent effect”. Besides, the Activity in data set [2] was 657 nmol/g; in data set [3], 249 nmol/g; in data set [4] it was 440 nmol/g. In the data set filed under Rattus norvegicus, the Ratio IC50 turned out to be 792.

Consider `CCOC(=O)N1CCc2c(c3cc(C(=O)O)ccc3n2CC(=O)O)C1`, for which the Ratio IC50 in the data set listed under Rattus norvegicus amounted to 381.

With “Aldo-keto reductase family 1 member B1 (Homo sapiens) (from UniProt P15121)”, the Michaelis-Menten constant (Km) in data set [5] turned out to be 22 µM; in data set [6] it was 36 µM.

In the case of `O=C(O)Cn1c2c(c3ccccc31)CN(C(=O)C1CC1)CC2`, the Ratio IC50 in the data set filed under Rattus norvegicus was 131.

Consider `CC(=O)c1c(C)n(CC(=O)O)c2ccccc12`, for which the Ratio IC50 in the data set listed under Rattus norvegicus was 66.

In general, Km refers to the concentration of substrate that gives half-maximal velocity.
